Data from patent US20160272613A1, “Pyridazinone Derivatives and their use as Herbicides” (BAYER CROPSCIENCE AKTIENGESELLSCHAFT, priority 2013, published 2016).

What was measured:
Assay type in all cases: in vivo
Abutilon theophrasti [1] = test: Pre-emergence herbicidal action against harmful plants; settings: 320 g/ha, visual score after 3 weeks vs untreated controls
From the text: (§1) Seeds of monocotyledonous and dicotyledonous weed plants and crop plants are laid out in wood-fiber pots in sandy loam and covered with soil. The compounds of the invention, formulated in the form of wettable powders (WP) or as emulsion concentrates (EC), are then applied to the surface of the covering soil in the form of an aqueous suspension or emulsion at a water application rate equating to 600 to 800 l/ha, with addition of 0.2% wetting agent. After the treatment, the pots are placed in a greenhouse and kept under good growth conditions for the trial plants. The damage to the trial plants is scored visually after a trial duration of 3 weeks by comparison with untreated controls (herbicidal activity in percent (%): 100% efficacy=the plants have died, 0% efficacy=like control plants). In this trial, for example, compound no.

Amaranthus retroflexus = test: as above; settings: 320 g/ha, visual score after 3 weeks vs untreated controls
From the text: as §1

Cyperus esculentus = test: as above; settings: 320 g/ha, visual score after 3 weeks vs untreated controls
From the text: as §1

Ipomoea purpurea [2] = test: as above; settings: 320 g/ha, visual score after 3 weeks vs untreated controls
From the text: as §1

Stellaria media [3] = test: as above; settings: 320 g/ha, visual score after 3 weeks vs untreated controls
From the text: as §1

Veronica persica [4] = test: as above; settings: 320 g/ha, visual score after 3 weeks vs untreated controls
From the text: as §1

Viola tricolor [5] = test: as above; settings: 320 g/ha, visual score after 3 weeks vs untreated controls
From the text: as §1

Abutilon theophrasti [6] = test: Post-emergence herbicidal action against harmful plants; settings: 80 g/ha, visual score after about 3 weeks vs untreated controls
Procedure: (§2) Seeds of monocotyledonous and dicotyledonous weed and crop plants are laid out in sandy loam in wood-fiber pots, covered with soil and cultivated in a greenhouse under good growth conditions. 2 to 3 weeks after sowing, the trial plants are treated at the one-leaf stage. The compounds of the invention, formulated in the form of wettable powders (WP) or as emulsion concentrates (EC), are then sprayed onto the green parts of the plants in the form of an aqueous suspension or emulsion at a water application rate equating to 600 to 800 I/ha, with addition of 0.2% wetting agent. After the trial plants have been left to stand in a greenhouse under optimal growth conditions for about 3 weeks, the efficacy of the formulations is scored visually in comparison to untreated controls (herbicidal action in percent (%): 100% efficacy=the plants have died, 0% efficacy=like control plants). In this trial, for example, compound no.

Ipomoea purpurea [7] = test: as above; settings: 80 g/ha, visual score after about 3 weeks vs untreated controls
Procedure: as §2

Stellaria media [8] = test: as above; settings: 80 g/ha, visual score after about 3 weeks vs untreated controls
Procedure: as §2

Veronica persica [9] = test: as above; settings: 80 g/ha, visual score after about 3 weeks vs untreated controls
Procedure: as §2

Viola tricolor [10] = test: as above; settings: 80 g/ha, visual score after about 3 weeks vs untreated controls
Procedure: as §2

Cn1ncc(-c2ccc(C(F)(F)F)c(=O)n2C)c(O)c1=O [1-4, 4-hydroxy-2-methyl-5-(1-methyl-3-(trifluoromethyl)pyrid-2-on-6-yl)-pyridazin-3-one]
at least 80%: herbicidal activity in percent (efficacy) (Abutilon theophrasti [1]) | herbicidal activity in percent (efficacy) (Amaranthus retroflexus) | herbicidal activity in percent (efficacy) (Cyperus esculentus) | herbicidal activity in percent (efficacy) (Ipomoea purpurea [2]) | herbicidal activity in percent (efficacy) (Stellaria media [3]) | herbicidal activity in percent (efficacy) (Veronica persica [4]) | herbicidal activity in percent (efficacy) (Viola tricolor [5]) | herbicidal action in percent (efficacy) (Abutilon theophrasti [6]) | herbicidal action in percent (efficacy) (Ipomoea purpurea [7]) | herbicidal action in percent (efficacy) (Stellaria media [8]) | herbicidal action in percent (efficacy) (Veronica persica [9]) | herbicidal action in percent (efficacy) (Viola tricolor [10])
